Measured values: ChEMBL document CHEMBL1201862, “PubChem BioAssay data set” (2004)
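Briefly, cells in 96-well plates were exposed to five compound concentrations for 48 h, and endpoints were estimated by linear interpolation. GI50 is the concentration that inhibits growth by half.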 Activity calls are given as the source filed them. Rule as the data show it: active = GI50 up to about 1.1 µM and inactive = higher.

What was measured:
Test in all cases: growth of human tumour cells (NCI), 48 h
[1] = tested on: SN12C
[2] = tested on: SK-OV-3
[3] = tested on: SF-539
[4] = tested on: CAKI-1
[5] = tested on: UACC-62
[6] = tested on: SNB-19
[7] = tested on: NCI-H460
[8] = tested on: UACC-257
[9] = tested on: SNB-75
[10] = tested on: OVCAR-5
[11] = tested on: HL-60
[12] = tested on: RPMI-8226
[13] = tested on: NCI-H226
[14] = tested on: MCF7
[15] = tested on: HOP-92
[16] = tested on: NCI/ADR-RES
[17] = tested on: MDA-MB-435
[18] = tested on: T47D
[19] = tested on: ACHN
[20] = tested on: NCI-H522

| Structure (SMILES) | GI50 [1] | GI50 [2] | GI50 [3] | GI50 [4] | GI50 [5] | GI50 [6] | GI50 [7] | GI50 [8] | GI50 [9] | GI50 [10] | GI50 [11] | GI50 [12] | GI50 [13] | GI50 [14] | GI50 [15] | GI50 [16] | GI50 [17] | GI50 [18] | GI50 [19] | GI50 [20] |
| --- | --- | --- | --- | --- | --- | --- | --- | --- | --- | --- | --- | --- | --- | --- | --- | --- | --- | --- | --- | --- |
| COc1ccc(/C=C/C=C2C(=O)NC(=S)NC2=O)cc1 | 7.35 µM (inactive) | 17.7 µM (inactive) | 4.41 µM (inactive) | 9.95 µM (inactive) | 3.07 µM (inactive) | 7.59 µM (inactive) | 12.5 µM (inactive) | 9.62 µM (inactive) | 17.7 µM (inactive) | 21 µM (inactive) | 0.805 µM (active) | 4.91 µM (inactive) | 15.7 µM (inactive) | 7.74 µM (inactive) | 12.8 µM (inactive) | 3.3 µM (inactive) | 2.59 µM (inactive) | 34.9 µM (inactive) | 5.08 µM (inactive) | – |
| Cc1ccc(S(=O)(=O)OC2CC(C(C)(C)C)CCC2c2ccccc2)cc1 (stereo not given) | > 100 µM (inactive) | > 100 µM (inactive) | > 100 µM (inactive) | 66.1 µM (inactive) | 57.5 µM (inactive) | 86.7 µM (inactive) | 78.7 µM (inactive) | 29 µM (inactive) | 27.9 µM (inactive) | > 100 µM (inactive) | > 100 µM (inactive) | 17.9 µM (inactive) | > 100 µM (inactive) | 35.1 µM (inactive) | 23.3 µM (inactive) | > 100 µM (inactive) | 66.1 µM (inactive) | 53.7 µM (inactive) | 54.6 µM (inactive) | – |
| Cc1ccsc1/C=N/Nc1cc(C)c2ccccc2n1 | 15.2 µM (inactive) | 17.3 µM (inactive) | – | 16.6 µM (inactive) | 12.5 µM (inactive) | 16.6 µM (inactive) | – | 6.78 µM (inactive) | 13.8 µM (inactive) | 24.3 µM (inactive) | 12.2 µM (inactive) | 3.28 µM (inactive) | 16 µM (inactive) | 15.6 µM (inactive) | 13.7 µM (inactive) | 13.9 µM (inactive) | 14 µM (inactive) | 17.8 µM (inactive) | 12.9 µM (inactive) | – |
| COc1cc(O)c2c(=O)c3cccc(C)c3[nH]c2c1 | > 10 µM (inactive) | > 10 µM (inactive) | > 10 µM (inactive) | > 10 µM (inactive) | > 10 µM (inactive) | > 10 µM (inactive) | > 10 µM (inactive) | > 10 µM (inactive) | 6.62 µM (inactive) | > 10 µM (inactive) | > 10 µM (inactive) | > 10 µM (inactive) | > 10 µM (inactive) | > 10 µM (inactive) | – | > 10 µM (inactive) | > 10 µM (inactive) | > 10 µM (inactive) | 7.41 µM (inactive) | > 10 µM (inactive) |
| COc1ccc(C2c3cc4c(cc3OC(N3CCOCC3)C2C)OCO4)cc1 (stereo not given) | 37.3 µM (inactive) | – | 21.4 µM (inactive) | 19.3 µM (inactive) | 27.6 µM (inactive) | 27.9 µM (inactive) | 26.1 µM (inactive) | 21.9 µM (inactive) | 35.9 µM (inactive) | 34.8 µM (inactive) | 21.1 µM (inactive) | 15.3 µM (inactive) | – | 26.1 µM (inactive) | 4.14 µM (inactive) | 23.2 µM (inactive) | 20.7 µM (inactive) | 7.96 µM (inactive) | 21.4 µM (inactive) | 30 µM (inactive) |
| Nc1nnc2n1C(=O)C(C1(C3=Nc4nnc(N)n4C3=O)Cc3ccccc3C1=O)=N2 | > 100 µM (inactive) | > 100 µM (inactive) | > 100 µM (inactive) | > 100 µM (inactive) | > 100 µM (inactive) | > 100 µM (inactive) | > 100 µM (inactive) | > 100 µM (inactive) | > 100 µM (inactive) | > 100 µM (inactive) | > 100 µM (inactive) | > 100 µM (inactive) | > 100 µM (inactive) | 40.7 µM (inactive) | > 100 µM (inactive) | > 100 µM (inactive) | > 100 µM (inactive) | 64.9 µM (inactive) | > 100 µM (inactive) | – |
| CC(=O)CSc1c(-c2ccccc2)c(=O)n(-c2ccccc2)c(=S)n1-c1ccccc1 | > 100 µM (inactive) | > 100 µM (inactive) | – | > 100 µM (inactive) | > 100 µM (inactive) | > 100 µM (inactive) | > 100 µM (inactive) | > 100 µM (inactive) | 61.2 µM (inactive) | > 100 µM (inactive) | > 100 µM (inactive) | > 100 µM (inactive) | > 100 µM (inactive) | > 100 µM (inactive) | > 100 µM (inactive) | > 100 µM (inactive) | > 100 µM (inactive) | > 100 µM (inactive) | > 100 µM (inactive) | > 100 µM (inactive) |
| O=S1(=O)C(c2ccccc2)=C(O)c2ccccc21 | – | – | > 100 µM (inactive) | – | > 100 µM (inactive) | > 100 µM (inactive) | > 100 µM (inactive) | > 100 µM (inactive) | > 100 µM (inactive) | > 100 µM (inactive) | > 100 µM (inactive) | > 100 µM (inactive) | > 100 µM (inactive) | > 100 µM (inactive) | > 100 µM (inactive) | > 100 µM (inactive) | > 100 µM (inactive) | > 100 µM (inactive) | > 100 µM (inactive) | > 100 µM (inactive) |
| CCOC(=O)[C@@]1(C(C)=O)CC(C)=C(C)C[S@@+]1[O-] | > 100 µM (inactive) | > 100 µM (inactive) | – | > 100 µM (inactive) | > 100 µM (inactive) | > 100 µM (inactive) | > 100 µM (inactive) | > 100 µM (inactive) | > 100 µM (inactive) | > 100 µM (inactive) | – | > 100 µM (inactive) | > 100 µM (inactive) | > 100 µM (inactive) | 50.2 µM (inactive) | > 100 µM (inactive) | > 100 µM (inactive) | > 100 µM (inactive) | > 100 µM (inactive) | > 100 µM (inactive) |
| CCOC(=O)C1C(c2ccc(OC)cc2)c2c(nn(-c3ccccc3)c2O)CC1(C)O (stereo not given) | 91.2 µM (inactive) | – | 92.7 µM (inactive) | > 100 µM (inactive) | 1.54 µM (inactive) | 75.2 µM (inactive) | 5.48 µM (inactive) | 3.31 µM (inactive) | > 100 µM (inactive) | > 100 µM (inactive) | 1.38 µM (inactive) | 2.29 µM (inactive) | – | 33.6 µM (inactive) | 92.3 µM (inactive) | 42.5 µM (inactive) | 3.02 µM (inactive) | 12.9 µM (inactive) | 23 µM (inactive) | 50 µM (inactive) |
| CC[C@]1(Cc2ccc(OC)c(OC)c2)C=[N+]([O-])O[C@H](OC2CCCC2(c2ccccc2)c2ccccc2)[C@@H]1OC(=O)c1ccccc1 (stereo not given in full) | > 21.2 µM (inactive) | > 47.9 µM (inactive) | > 100 µM (inactive) | > 100 µM (inactive) | 8.67 µM (inactive) | > 29.2 µM (inactive) | 14.2 µM (inactive) | 14 µM (inactive) | 6.62 µM (inactive) | 22.3 µM (inactive) | 3.21 µM (inactive) | – | 18 µM (inactive) | 3.38 µM (inactive) | 3.02 µM (inactive) | 4.73 µM (inactive) | 3.73 µM (inactive) | 2.73 µM (inactive) | 7.83 µM (inactive) | 3.87 µM (inactive) |
| O=C(/C=C/c1cccc(Oc2ccccc2)c1)NCc1ccc(C(=O)NCCc2ccccc2)cc1 | > 100 µM (inactive) | > 100 µM (inactive) | 14.8 µM (inactive) | > 100 µM (inactive) | > 100 µM (inactive) | 29.9 µM (inactive) | > 100 µM (inactive) | > 100 µM (inactive) | 29.4 µM (inactive) | > 100 µM (inactive) | – | > 100 µM (inactive) | > 100 µM (inactive) | > 100 µM (inactive) | > 100 µM (inactive) | > 100 µM (inactive) | > 100 µM (inactive) | > 100 µM (inactive) | > 100 µM (inactive) | 75 µM (inactive) |
| O=C1NC(N2CCCCC2)=N/C1=C\c1ccco1 | > 100 µM (inactive) | > 100 µM (inactive) | > 100 µM (inactive) | > 100 µM (inactive) | > 100 µM (inactive) | > 100 µM (inactive) | – | > 100 µM (inactive) | – | > 100 µM (inactive) | > 100 µM (inactive) | > 100 µM (inactive) | 67.9 µM (inactive) | > 100 µM (inactive) | > 100 µM (inactive) | > 100 µM (inactive) | > 100 µM (inactive) | > 100 µM (inactive) | > 100 µM (inactive) | > 100 µM (inactive) |
| O=C(O)c1ccc2nc(-c3ccccn3)c(-c3ccccn3)nc2c1 | – | > 100 µM (inactive) | > 100 µM (inactive) | > 100 µM (inactive) | > 100 µM (inactive) | > 100 µM (inactive) | > 100 µM (inactive) | > 100 µM (inactive) | > 100 µM (inactive) | – | > 100 µM (inactive) | > 100 µM (inactive) | > 100 µM (inactive) | > 100 µM (inactive) | > 100 µM (inactive) | > 100 µM (inactive) | > 100 µM (inactive) | > 100 µM (inactive) | > 100 µM (inactive) | – |
| O=C(NCCCCNCCCNC(=O)c1ccccc1)c1ccccc1 | > 100 µM (inactive) | > 100 µM (inactive) | > 100 µM (inactive) | – | > 100 µM (inactive) | > 100 µM (inactive) | > 100 µM (inactive) | > 100 µM (inactive) | > 100 µM (inactive) | > 100 µM (inactive) | > 100 µM (inactive) | > 100 µM (inactive) | > 100 µM (inactive) | > 100 µM (inactive) | > 100 µM (inactive) | > 100 µM (inactive) | > 100 µM (inactive) | > 100 µM (inactive) | > 100 µM (inactive) | > 100 µM (inactive) |
